Values quoted from earlier work in patent US20100216641A1, “Low VOC and Stable Plant Growth Regulator Liquid and Granule Compositions” (priority 2009, published 2010).

Settings: at 25° C.

For `O=C(Nc1ccccc1)Nc1ccnc(Cl)c1` [CPPU, forchlorfenuron], the water solubility is listed as 39 ppm.
